What was measured:
[1] = tested on: normal human plasma pretreated with inhibitory antibodies against factor VIII; test: Thrombin generation in normal plasma spiked with inhibitory antibodies against factor VIII; format: biochemical; settings: antibody VK34 14 μg/ml; 1 pM TF
Description: (§1) The Calibrated Automated Thrombogram® assays the generation of thrombin in clotting plasma using a microtiter plate reading fluorometer (Fluoroskan Ascent, ThermoLab systems, Helsinki, Finland) and Thrombinoscope® software (Thrombinoscope BV, Maastricht, The Netherlands). The assay was carried out as described by Hemker et al. (Pathofysiol. IIaemost. Thromb. 2003, 33, 4-15), and the Thrombinoscope® manual. Coagulation was triggered by recalcification in the presence of 1 or 5 pM recombinant human tissue factor (Innovin®, Siemens, Marburg, Germany), 4 μM phospholipids, and 417 μM fluorogenic substrate Z-Gly-Gly-Arg-AMC (Bachem, Bubendorf, Switzerland). Fluorescence was monitored using the Fluoroskan Ascent fluorometer (ThermoLabsystems, Helsinki, Finland), and the lag time, peak thrombin, velocity index and area under the curve (ETP) were calculated using the Thrombinoscope® software (Thrombinoscope BV).
(§2) Normal plasma was spiked with inhibitory antibodies against factor VIII (Sanquin, VK34, 14 μg/ml), factor IX (Sanquin, 5F5, 20 μg/ml) or factor XI (Sanquin, mix of #203 and #175, 75 μg/ml). The effect of OKL-1111 was tested in thrombin generation assay using 1 pM tissue factor (TF). This model is representative for hemophilia A, B and C patients that have developed inhibitory antibodies against plasma-derived or recombinant factor VIII or IX or XI they are treated with.

[2] = tested on: plasma of a hemophilia A patient containing anti-FVIII antibodies; test: Thrombin generation in plasma of a hemophilia A patient with anti-factor VIII antibodies; format: biochemical, human; settings: anti-FVIII antibodies 50 BU
Description: FIG. 28: Effect of OKL-1111 (A), OKL-1180 (B) and OKL-1187 (C) on coagulation in plasma of a hemophilia A patient with anti-factor VIII antibodies. BU=Bethesda Units.
as §1
The patient had developed antibodies against factor VIII prior to plasma withdrawal. The plasma contained high levels of anti-FVIII antibodies (50 BU).

[3] = tested on: mice anticoagulated with rivaroxaban; test: In vivo saphenous vein bleeding model in mice anticoagulated with rivaroxaban; settings: mice fed rivaroxaban for 4 days; cyclodextrin by tail vein injection 5 min before bleeding assay; OKL-1111 dose expected to give 25 μM in plasma
Description: FIG. 29: In vivo analysis of procoagulant potential of OK-1111 and OKL-1147. Except for controls, animals were treated with rivaroxaban for 4 days and cyclodextrins were administered 5 min prior bleeding assay.
All animal protocols were approved by the Institutional Animal Care and Use Committee of the University of North Carolina. C57BL6/J mice were purchased from Charles Rivers Laboratories (Willmington, Mass.). Bleeding studies were done essentially as previously described Pastoft et al. (Haemophilia 2012; 18:782-8). Mice were anesthetized with isoflurane throughout all procedures. The hair on the ventral side of both hind limbs was removed. The animals were placed supine on a temperature and ECG monitoring board. The paws were gently restrained by looping soft polyethylene tubing around them and attaching the tubing to the ECG board. The skin on the left and right ventral hind limb was incised which exposes a length of the saphenous neurovascular bundle; the bundle was covered with normal saline to prevent drying. To assess haemostasis, the right saphenous vein was transected by piercing it with a 23-G needle followed by a longitudinal incision made in the distal portion of the vessel. Blood was gently wicked away until haemostasis occurred. The clot was then removed to restart bleeding and the blood was again wicked away until haemostasis occurs again. Clot disruption was repeated after every incidence of haemostasis for 30 minutes. Mice were fed chow that contained 0.1 mg rivaroxaban per g of chow. The mice were on this diet for 4 days to allow them to reach a steady state. Cyclodextrins were administered by a tail vein injection 5 minutes before the start of the bleeding assay. Two parameters were measured: 1) the number of times that haemostasis occurs in a 30 minute period, and 2) the time required for each haemostasis.

[4] = tested on: human plasma deficient in coagulation factor XI; test: Thrombin generation assay in human plasma deficient in coagulation factor XI; format: biochemical
Description: as §1

[5] = tested on: normal human plasma pretreated with inhibitory antibodies against factor IX; test: Thrombin generation in normal plasma spiked with inhibitory antibodies against factor IX; format: biochemical; settings: antibody 5F5 20 μg/ml; 1 pM TF
Description: as §1, §2

O=C(O)CCCCCSCC1OC2OC3C(CSCCCCCC(=O)O)OC(OC4C(CSCCCCCC(=O)O)OC(OC5C(CSCCCCCC(=O)O)OC(OC6C(CSCCCCCC(=O)O)OC(OC7C(CSCCCCCC(=O)O)OC(OC8C(CSCCCCCC(=O)O)OC(OC9C(CSCCCCCC(=O)O)OC(OC1C(O)C2O)C(O)C9O)C(O)C8O)C(O)C7O)C(O)C6O)C(O)C5O)C(O)C4O)C(O)C3O (centres unmarked) [OKL-1111]
thrombin generation in plasma with inhibitory antibodies against factor VIII [1]: concentration-dependently stimulated thrombin generation | thrombin generation in hemophilia A patient plasma [2]: concentration-dependently stimulated thrombin generation | clotting times [3]: normalization of the clotting times | stimulation of coagulation in factor XI deficient plasma [4]: stimulate coagulation significantly | thrombin generation in plasma with inhibitory antibodies against factor IX [5]: concentration-dependently stimulated thrombin generation

Source: US10813944B2, “Cyclodextrins as procoagulants” (STICHTING SANQUIN BLOEDVOORZIENING, priority 2016, dated 2020)
